Reference: paper PMC6161789, “Modeling and antitumor studies of a modified L–penetratin peptide targeting E2F in lung cancer and prostate cancer” (Oncotarget, 2018)
Ends that are not written are not given here.

Assays:
DU145 cells = assay: Stability testing of the peptide in RPMI 1640 with 10% FBS, read out by DU145 cell viability; type: in vitro ADME, human; details: pre-incubation in RPMI 1640 with 10% FBS, 37°C, 24 hours; then 24 hours on DU145 cells, MTS 490 nm, triplicate
Description: Figure 4 A. D- Arg Peptide incubated in 10% FBS RPMI media at 37°C for 24 hours is resistant to proteolysis; it is as effective as the non-incubated D- Arg Peptide in DU145 cells. D- Arg Peptide was incubated in RPMI media containing 10% FBS at 37°C for 24 hours. DU145 cells were seeded in a 96 well plate at 5000 cells in each well. After 24 hours either the incubated D- Arg Peptide or the non-incubated D- Arg Peptide was added to the cells. B. D- Arg and L-Arg Peptide incubated in 10% FBS RPMI media at 37°C for 24 hours. DU145 cells were seeded in a 96 well plate at 5000 cells in each well. After 24 hours either the incubated D- Arg Peptide or the L- Arg Peptide was added to the cells. The cell viability in both experiments were assessed after another 24 hours by measuring the absorption at 490nm using the MTS tetrazolium Promega CellTitre 96® Aqueous One Solution Cell proliferation assay according to the manufacturer’s instructions. Each time point was done in triplicate and values are represented by mean with standard mean deviation.
The peptide was mixed with the RPMI 1640 medium containing 10% FBS and incubated at 37 °C for 24 hours. Cells were plated in a 96 well plate in 180 μl of the media containing 10% FBS. After 24 hours, 20 μl of either the incubated D- Arg or the regular (fresh) D- Arg Peptide was added to the cell plate and tested after another 24 hours. Then 20 μl of the MTS tetrazolium Promega CellTitre 96® Aqueous One Solution Cell Proliferation Assay was added to each well and incubated for two to three hours. Absorbance was measured at 490 nm as per the manufacturer’s protocol to determine the cell viability.

[1] = test system: DU145 prostate cancer cells; details: cited from earlier work
Description: (§1) This unique E2F1 inhibitory peptide with the sequence His-His-His-Arg-Leu-Ser-His, found by phage display, was discovered by its ability to bind tightly to an immobilized consensus E2F1 promoter sequence. Importantly, treatment of tumor xenografts of human small cell lung cancer H69 and human prostate cancer DU14 ...

Burkitt lymphoma cells = details: cited from earlier work
Description: as §1

[2] = test system: pRB negative small cell lung cancer (SCLC) cells; details: cited from earlier work
Description: as §1

[3] = test system: consensus E2F1 promoter sequence; details: found by phage display; cited from earlier work
Description: as §1

Molecule	Stability in serum: incubated D- Arg versus incubated L- Arg peptide (DU145 cells)	Stability: toxicity of pre-incubated versus fresh non-incubated peptide (DU145 cells)	Cytotoxicity [1]	Cytotoxicity (Burkitt lymphoma cells)	Cytotoxicity [2]	Binding to immobilized consensus E2F1 promoter sequence [3]
CC[C@H](C)[C@H](NC(=O)[C@H](CCCCN)NC(=O)[C@@H](NC(=O)[C@H](CCC(N)=O)NC(=O)[C@@H](N)CCCNC(=N)N)[C@@H](C)CC)C(=O)N[C@@H](Cc1c[nH]c2ccccc12)C(=O)N[C@@H](Cc1ccccc1)C(=O)N[C@@H](CCC(N)=O)C(=O)N[C@@H](CC(N)=O)C(=O)N[C@@H](CCCNC(=N)N)C(=O)N[C@@H](CCCNC(=N)N)C(=O)N[C@@H](CCSC)C(=O)N[C@@H](CCCCN)C(=O)N[C@@H](Cc1c[nH]c2ccccc12)C(=O)N[C@@H](CCCCN)C(=O)N[C@@H](CCCCN)C(=O)N[C@@H](Cc1c[nH]cn1)C(=O)N[C@@H](Cc1c[nH]cn1)C(=O)N[C@@H](Cc1c[nH]cn1)C(=O)N[C@H](CCCNC(=N)N)C(=O)N[C@@H](CC(C)C)C(=O)N[C@@H](CO)C(=O)N[C@@H](Cc1c[nH]cn1)C(=O)O [D-Arg PEP]	more resistant to proteolysis after pre-incubation in serum	as potent as the non-incubated fresh D- Arg PEP	–	–	–	–
CC[C@H](C)[C@H](NC(=O)[C@H](CCCCN)NC(=O)[C@@H](NC(=O)[C@H](CCC(N)=O)NC(=O)[C@@H](N)CCCNC(=N)N)[C@@H](C)CC)C(=O)N[C@@H](Cc1c[nH]c2ccccc12)C(=O)N[C@@H](Cc1ccccc1)C(=O)N[C@@H](CCC(N)=O)C(=O)N[C@@H](CC(N)=O)C(=O)N[C@@H](CCCNC(=N)N)C(=O)N[C@@H](CCCNC(=N)N)C(=O)N[C@@H](CCSC)C(=O)N[C@@H](CCCCN)C(=O)N[C@@H](Cc1c[nH]c2ccccc12)C(=O)N[C@@H](CCCCN)C(=O)N[C@@H](CCCCN)C(=O)N[C@@H](Cc1c[nH]cn1)C(=O)N[C@@H](Cc1c[nH]cn1)C(=O)N[C@@H](Cc1c[nH]cn1)C(=O)N[C@@H](CCCNC(=N)N)C(=O)N[C@@H](CC(C)C)C(=O)N[C@@H](CO)C(=O)N[C@@H](Cc1c[nH]cn1)C(=O)O [L-Arg PEP]	unstable in serum	–	cytotoxic at low micro molar concentrations	cytotoxic at low micro molar concentrations	cytotoxic at low micro molar concentrations	–
HHHRLSH [E2F1 inhibitory peptide, 7-mer peptide His-His-His-Arg-Leu-Ser-His found by phage display]	–	–	–	–	–	bind tightly
